The subject of data set [1] is human hepatoma HepG2 cells. In words: Oleate:Palmitate-induced lipid accumulation in hepatocytes (Nile-Red). It is filed as cell-based. Conditions: CBD 20 μM; 0.3 mM oleate:palmitate 2:1; 24 hr; FIG. 1. The method, then:
To test whether CBG and/or CBD have the ability to reduce lipid accumulation in hepatocytes, we have utilized an in vitro model of fat accumulation in hepatocytes. Briefly, human hepatoma HepG2 cells were maintained at 37° C. in 5% CO2 in DMEM medium supplemented with 10% FCS, 2 mM 1-glutamine, 1 mM sodium pyruvate, 100 U/mL penicillin and […] streptomycin. Free fatty acids (2:1, molar ratio, oleic and palmitic acids) were mixed with bovine serum albumin (BSA). Cells were incubated with fatty acid-BSA complex in FCS-free culture medium at 0.3 mM final concentration of fatty acid and 1% of BSA. Control cell cultures were incubated with medium containing the vehicle. Compounds were tested in a range of concentrations (as detailed in each figure) in the presence/absence of fatty acids. The synergistic effect between two compounds was also tested once validating their individual effect. After 24 hr of incubation with the compounds, the cells were washed, incubated with 1 μg/mL mixture of Nile-Red/Hoechst solution for 15 mins at 37° C. protected from light. Fluorescence was measured by the Cytation-3 plate reader at ex:488 nm/em:550 for Nile-Red and Hoechst, respectively. Results were normalized to total protein levels of each well, and presented as a change in the accumulation of lipids in comparison with Vehicle-treated group.

Data set [2] has as its system high-fat diet-induced obese mice. Description: Hepatic steatosis in high-fat diet-induced obese mice. Conditions: 28 days ip, CBG 25 mg/kg/day; for HFD-induced hepatic steatosis (liver triglyceride levels, fat vacuoles and ballooning in hepatocytes): CBD 10 mg/kg/day, alone or combined, FIGS. 5A, B. It is filed as in vivo, mouse. The method, then: (§1) Next, the inventors tested whether the isolated and combined effect of phytocannabinoids has the ability to reverse fatty liver (hepatic steatosis) and improve metabolism in high-fat diet-induced obese mouse. Briefly, six weeks old, male C57Bl/6J mice were fed ad libitum with a high-fat diet (HFD; D12492; 60% of calories from fat, 20% from protein, and 20% from carbohydrates; Research Diets) or a mouse standard diet (STD; NIH no. 31 rodent diet) for 14 weeks. Then, the mice were treated for 28 days with CBD (10 mg/kg/day, ip), CBG (25 mg/kg/day, ip), CBD+CBG (10 mg/kg/day+25 mg/kg/day, ip respectively) or vehicle (EtOH:cremophor:saline; 1:1:18). The mouse groups were labeled as defined here: mice on a STD treated with vehicle (STD-Veh), mice on a HFD treated with vehicle (HFD-Veh), mice on a HFD treated with CBD (HFD-CBD), mice on a HFD treated with CBG (HFD-CBG), and mice on a HFD treated with CBD+CBG (HFD-CBD+CBG).
Hepatic steatosis (Fatty liver) was measured by (i) quantifying the amount of triglycerides and cholesterol in the liver by using a specific lipid extraction method followed by colorimetric chemical analyses using the Cobas C111 Chemistry Analyzer (Roche, Germany), and (ii) evaluating the reversal of fatty liver by histology. Briefly, paraffin-embedded liver sections (5 tiM) were be used to evaluate hepatic morphology (using H & E staining).

Data set [3] has the same test system. Description: Glucose and insulin homeostasis in high-fat diet-induced obese mice. It is filed as in vivo, mouse. Conditions: 28 days ip, CBG 25 mg/kg/day; for HFD-induced hyperglycemia (fasting blood glucose levels) / glucose tolerance (intraperitoneal glucose tolerance test) / serum insulin levels (hyperinsulinemia): CBD 10 mg/kg/day; for HFD-induced hyperglycemia (fasting blood glucose levels) / glucose tolerance (intraperitoneal glucose tolerance test): alone or combined; for HFD-induced hyperglycemia (fasting blood glucose levels): FIG. 6A; for glucose tolerance (intraperitoneal glucose tolerance test): FIG. 6B, C; for serum insulin levels (hyperinsulinemia): FIG. 7A. How it is done: as §1
Glucose and insulin homeostasis was assessed by (i) measuring fasting blood glucose (Elite glucometer, Bayer, Germany) and serum insulin (Ultra-Sensitive Mouse Insulin ELISA kit, EMD Millipore, MA) levels, (ii) evaluating Homeostatic Model Assessment for Insulin Resistance (HOMA-IR), and (iii) performing intraperitoneal glucose tolerance test.

Data set [4] shares this test system. In words: Lipid balance (circulating triglycerides and cholesterol) in high-fat diet-induced obese mice. It is filed as in vivo, mouse. As to conditions: 28 days ip; for serum triglycerides: CBD 10 mg/kg/day, FIG. 8A. How it is done: as §1
Lipid balance was assessed by evaluating the levels of low-density lipoprotein (LDL)-cholesterol, total cholesterol and triglycerides by using Cobas C111 Chemistry Analyzer (Roche, Germany).

In a further data set the test system is rats on high-fat diets. Conditions: cited from earlier work.
For the next data set, the system named is mice. As to conditions: cited from earlier work.
Data set [5] concerns high-fat diet-induced obese mice. In words: Antiobesity effect (fat and lean mass, EchoMRI) in high-fat diet-induced obese mice. It is filed as in vivo, mouse. As to conditions: 28 days ip; CBG 25 mg/kg/day; FIG. 9B, C. How it is done: as §1
Antiobesity effect was assessed by measuring body weight. Total fat and lean masses were determined at the end of the treatment by EchoMRI-100 (Echo Medical Systems LLC, Houston Tex.).

Another data set has as its system obese mice. Conditions: cited from earlier work.

Each structure is given as a SMILES string.

With `C=C(C)[C@@H]1CCC(C)=C[C@H]1c1c(O)cc(CCCCC)cc1O` [CBD, cannabidiol, reference compound], in data set [1], the “lipid accumulation in hepatocytes” value is given as “significantly reduce lipid accumulation”. Also, the “HFD-induced hepatic steatosis (liver triglyceride levels, fat vacuoles and ballooning in hepatocytes)” value in data set [2] is “significantly attenuated”. For the same molecule, in data set [3], the “HFD-induced hyperglycemia (fasting blood glucose levels)” value is on record as “significantly normalized”, the “glucose tolerance (intraperitoneal glucose tolerance test)” value is listed as “significant improvement” and the “serum insulin levels (hyperinsulinemia)” value is reported as “ineffective in reducing hyperinsulinemia”. In data set [4] (CBG 25 mg/kg/day), the serum triglycerides result was “Reduction”. For the same molecule, the weight gain result in the data set on rats on high-fat diets was “inhibits weight gain”. Further, the “development of alcohol-induced hepatosteatosis” value with mice is given as “inhibits”.
As for `CCCCCc1cc(O)c(C/C=C(\C)CCC=C(C)C)c(O)c1` [CBG, cannabigerol], in data set [2], the “HFD-induced hepatic steatosis (liver triglyceride levels, fat vacuoles and ballooning in hepatocytes)” value is reported as “significantly attenuated”. The liver cholesterol levels result in data set [2] (FIG. 5C) was “trend toward reduction”. Moreover, in data set [3], the “HFD-induced hyperglycemia (fasting blood glucose levels)” value is recorded as “significantly normalized”, the “glucose tolerance (intraperitoneal glucose tolerance test)” value is given as “significant improvement” and the “serum insulin levels (hyperinsulinemia)” value is “trend toward reduction”. Also, in data set [3] (FIG. 7B), the HOMA-IR entry is “normalization”. Besides, the serum triglycerides entry in data set [4] (CBG 25 mg/kg/day) is listed as “Reduction”. Besides, the “total circulating cholesterol levels” value in data set [4] (CBG 25 mg/kg/day alone or with CBD 10 mg/kg/day, FIG. 8B) is “significantly reduced”. In addition, the LDL-Cholesterol levels result in data set [4] (CBG 25 mg/kg/day, FIG. 8C) is on record as “significant reduction”. Besides, in data set [5], the fat mass entry is on record as “significant reduction” and the lean mass entry is listed as “increased”.
Take `CCCc1cc(O)c2c(c1)OC(C)(C)[C@@H]1CCC(C)=C[C@@H]21` [THCV, Δ^9-tetrahydrocannabivarin]: in the data set on obese mice, the insulin sensitivity result was “improves insulin sensitivity” and the “triglyceride (TG) accumulation within the livers” value was “decreases”.
